The record followed here is ChEMBL document CHEMBL4414676, “Quinazoline-Containing Indole Alkaloids from the Marine-Derived Fungus Aspergillus sp. HNMF114” (J Nat Prod, 2019).

The subject of one assay is SGC-7901. Kind of assay: Antiproliferative activity against human SGC7901 cells after 24 to 72 hrs by MTT assay. It counts as functional, cell-based. On the technique in general: Tetrazolium dyes change colour on reduction, which living cells bring about.
For a further assay, the system named is HeLa. Put plainly: Antiproliferative activity against human HeLa cells after 24 to 72 hrs by MTT assay. It counts as functional, cell-based.
The test system of the next assay is A549. Put plainly: Antiproliferative activity against human A549 cells after 24 to 72 hrs by MTT assay. It counts as functional, cell-based.
A further assay concerns Staphylococcus aureus. Put plainly: Antibacterial activity against Staphylococcus aureus after 24 hrs by two fold dilution assay. It counts as functional, organism-based.
A further assay has as its system Escherichia coli. Kind of assay: Antibacterial activity against Escherichia coli after 24 hrs by two fold dilution assay. It counts as functional, organism-based.
The test system of the next assay is Bacillus subtilis. Put plainly: Antibacterial activity against Bacillus subtilis after 24 hrs by two fold dilution assay. It counts as functional, organism-based.
For the next assay, the system named is Streptococcus agalactiae. Kind of assay: Antibacterial activity against Streptococcus agalactiae after 24 hrs by two fold dilution assay. It counts as functional, organism-based.
The subject of a further assay is K562. Kind of assay: Antiproliferative activity against human K562 cells after 24 to 72 hrs by MTT assay. It counts as functional, cell-based.
Assay [1] in a line: Inhibition of quorum sensing in C6-HSL-induced Chromobacterium violaceum CV026 assessed as […] by measuring minimum inhibitory dose per well after 18 hrs by well diffusion method. On the technique in general: Agar diffusion results depend on both activity and mobility in agar.

Active and inactive are the calls of the source. The calls are words filed in the database; no cut-off is given here.

As for `CC(C)[C@H](O)c1nc2ccccc2c(=O)n1[C@H]1C[C@]2(OC1=O)c1ccccc1N1C(=O)C(C)(C)N(S(C)(=O)=O)[C@H]12`, the outcome with SGC-7901, with HeLa, in the assay with A549, in the assay on Staphylococcus aureus, in the assay on Escherichia coli and in the assay on Bacillus subtilis was inactive. Besides, the result in the assay with Streptococcus agalactiae and in the assay with K562 was inactive.

As to `CC(C)[C@@H]1NC(=O)[C@@H](C[C@]2(O)c3ccccc3N3C(=O)C(C)(C)N[C@H]32)n2c1nc1ccccc1c2=O`, the result in the assay with SGC-7901, in the assay on HeLa, with A549, in the assay with Staphylococcus aureus, in the assay with Escherichia coli and in the assay with Bacillus subtilis was inactive. The outcome in the assay with Streptococcus agalactiae and in the assay on K562 was inactive.

`CC(=O)O[C@H](c1nc2ccccc2c(=O)n1[C@@H]1C[C@]2(OC1=O)c1ccccc1N1C(=O)C(C)(C)N[C@H]12)C(C)C`: the outcome in the assay with SGC-7901, in the assay with HeLa, in the assay with A549, with Staphylococcus aureus, with Escherichia coli and in the assay with Bacillus subtilis was inactive. Moreover, the outcome with Streptococcus agalactiae and in the assay with K562 was inactive.

`CC1(C)C(=O)N2c3ccccc3[C@@]3(C[C@H](n4cnc5ccccc5c4=O)C(=O)O3)[C@@H]2N1O`: the outcome with SGC-7901, in the assay on HeLa, in the assay on A549, in the assay on Staphylococcus aureus, in the assay on Escherichia coli and in the assay with Bacillus subtilis was inactive. In addition, the result with Streptococcus agalactiae and in the assay with K562 was inactive.

Turning to `CC(=O)OC(c1nc2ccccc2c(=O)n1[C@@H]1C[C@]2(OC1=O)C(=O)Nc1ccccc12)C(C)C` (some centres not stated), the outcome in the assay on SGC-7901, with HeLa, in the assay on A549, in the assay with Staphylococcus aureus, in the assay with Escherichia coli and in the assay on Bacillus subtilis was inactive. Further, the outcome with Streptococcus agalactiae and in the assay on K562 was inactive. In [1], the MIC was found to be 32 µg.

As to `CC(=O)O[C@H](c1nc2ccccc2c(=O)n1[C@@H]1C[C@]2(OC1=O)c1ccccc1N1C(=O)C(C)(C)N(O)[C@H]12)C(C)C`, the result with SGC-7901, in the assay on HeLa, in the assay on A549, with Staphylococcus aureus, in the assay on Escherichia coli and with Bacillus subtilis was inactive. Further, the result in the assay with Streptococcus agalactiae and with K562 was inactive.

`CC(C)[C@H](O)c1nc2ccccc2c(=O)n1[C@H]1C[C@]2(OC1=O)c1ccccc1N1C(=O)C(C)(C)N(O)[C@H]12`: the outcome in the assay on SGC-7901, in the assay on HeLa, in the assay with A549, in the assay on Staphylococcus aureus, in the assay on Escherichia coli and in the assay on Bacillus subtilis was inactive. For the same compound, the outcome with Streptococcus agalactiae and with K562 was inactive.

Consider `CC(C)=C1NC(=O)[C@@H](C[C@@]2(O)C(=O)Nc3ccccc32)n2c1nc1ccccc1c2=O`, for which the outcome with SGC-7901, in the assay on HeLa, with A549, in the assay on Staphylococcus aureus, in the assay with Escherichia coli and with Bacillus subtilis was inactive. Moreover, the result with Streptococcus agalactiae and in the assay with K562 was inactive. For the same compound, the MIC in assay [1] came out at 16 µg.

On to `CC(=O)O[C@@H](c1nc2ccccc2c(=O)n1[C@H]1C[C@]2(OC1=O)c1ccccc1N1C(=O)C(C)(C)N[C@H]12)C(C)C`, for which the result with SGC-7901, in the assay on HeLa, in the assay on A549, in the assay on Staphylococcus aureus, in the assay with Escherichia coli and in the assay with Bacillus subtilis was inactive. The outcome with Streptococcus agalactiae and with K562 was inactive.

Turning to `O=C1N[C@@H]2c3nc4ccccc4c(=O)n3[C@@H]1C[C@@]21C(=O)Nc2ccccc21`, the outcome in the assay on SGC-7901, in the assay with HeLa, with A549, with Staphylococcus aureus, in the assay on Escherichia coli and in the assay on Bacillus subtilis was inactive. Moreover, the result in the assay with Streptococcus agalactiae and in the assay with K562 was inactive.

On to `O=C1C=C(Br)/C(=C/Br)O1`, for which, in assay [1], the MIC is 1 µg.

`CC1(C)C(=O)N2c3ccccc3[C@@]3(C[C@H]4n5c(nc6ccccc6c5=O)C(=O)C(C)(C)[C@@]4(O)O3)[C@@H]2N1O`: the result with SGC-7901, with HeLa, in the assay on A549, with Staphylococcus aureus, with Escherichia coli and in the assay with Bacillus subtilis was inactive. The outcome in the assay with Streptococcus agalactiae and in the assay on K562 was inactive.

For the compound `CC(=O)OC(c1nc2ccccc2c(=O)n1[C@H]1C[C@@]2(OC1=O)C(=O)Nc1ccccc12)C(C)C` (some centres not stated), the outcome in the assay on SGC-7901, in the assay with HeLa, with A549, with Staphylococcus aureus, in the assay on Escherichia coli and with Bacillus subtilis was inactive. Further, the outcome in the assay with Streptococcus agalactiae and in the assay on K562 was inactive. The MIC in assay [1] came out at 32 µg.

In the case of `O=C1N[C@H]2c3nc4ccccc4c(=O)n3[C@@H]1C[C@@]21c2ccccc2N2C(=O)[C@@H]3CCCN3[C@H]21`, the outcome with SGC-7901, in the assay with HeLa, in the assay with A549, in the assay with Staphylococcus aureus, in the assay with Escherichia coli and in the assay with Bacillus subtilis was inactive. Also, the outcome with Streptococcus agalactiae and with K562 was inactive.

As to `CC(C)[C@@H](O)c1nc2ccccc2c(=O)n1[C@H]1C[C@]2(OC1=O)c1ccccc1N1C(=O)C(C)(C)N(O)[C@H]12`, the result in the assay on SGC-7901, with HeLa, in the assay with A549, with Staphylococcus aureus, with Escherichia coli and in the assay with Bacillus subtilis was inactive. The outcome in the assay with Streptococcus agalactiae and with K562 was inactive.

Consider `CCC(=O)O[C@H](c1nc2ccccc2c(=O)n1[C@@H]1C[C@]2(OC1=O)c1ccccc1N1C(=O)C(C)(C)N(O)[C@H]12)C(C)C`, for which the outcome with SGC-7901, in the assay with HeLa, in the assay with A549, with Staphylococcus aureus, in the assay with Escherichia coli and in the assay on Bacillus subtilis was inactive. In addition, the result in the assay with Streptococcus agalactiae and in the assay on K562 was inactive.

`CC(C)[C@@]1(O)NC(=O)[C@@H](C[C@]2(O)c3ccccc3N3C(=O)C(C)(C)N(O)[C@H]32)n2c1nc1ccccc1c2=O`: the outcome with SGC-7901, in the assay with HeLa, with A549, with Staphylococcus aureus, in the assay on Escherichia coli and in the assay on Bacillus subtilis was inactive. For the same compound, the outcome in the assay on Streptococcus agalactiae and with K562 was inactive.
